From ChEMBL document CHEMBL3611999, “Bifunctional compounds targeting both D2 and non-α7 nACh receptors: design, synthesis and pharmacological characterization” (Eur J Med Chem, 2015) come the findings set out here.

Activity calls are given as the source filed them. The rule behind the calls is not given here.

The target in test [1] is Neuronal acetylcholine receptor; alpha4/beta2 (Rattus norvegicus, UniProt P09483+P12390). The test can be described thus: Displacement of [3H]epibatidine from immunoimmobilized alpha4beta2 nAChR in Sprague-Dawley rat striatal membranes by liquid scintillation counting. Details: species or system Sprangue-Dawley, Striatum, Membrane.
The target in test [2] is Neuronal acetylcholine receptor subunit alpha-7 (Rattus norvegicus, UniProt Q05941). The test can be described thus: Displacement of [125I]alpha-bungarotoxin from alpha7 nAChR in Sprague-Dawley rat hippocampus membrane homogenates by gamma counting. Details: species or system Sprangue-Dawley. (In general: In a radioligand displacement assay an active substance lowers the binding of a labelled ligand.)

Test [3] is described as follows: Antagonist activity at nAChR in Sprague-Dawley rat striatal slices assessed as inhibition of nicotine-induced [3H]-dopamine release. The settings on record: Sprangue-Dawley.
The target of test [4] is T1, Neuronal acetylcholine receptor; alpha4/beta2 (Homo sapiens, UniProt P17787+P43681). The test can be described thus: Antagonist activity at human alpha4beta2 nAChR expressed in HEK293 cells assessed as inhibition of acetylcholine-induced inward current at holding potential of -70 mV by patch clamp technique. The test is classed as cell-based. In general terms: The patch-clamp technique gives a direct electrical read-out from membranes.

Test [5] addresses T1, Neuronal acetylcholine receptor; alpha4/beta2. The test can be described thus: Partial agonist activity at human alpha4beta2 nAChR expressed in HEK293 cells assessed as inward current at holding potential of -70 mV by patch clamp technique relative to acetylcholine. The format is cell-based. Details: concentration or dose not given beside the values.
The species named for test [6] is Rattus norvegicus. The test can be described thus: Agonist activity at nAChR in Sprague-Dawley rat striatal slices assessed as induction of [3H]-dopamine release. The note with it: Sprangue-Dawley.
The target of test [7] is T1, Neuronal acetylcholine receptor; alpha4/beta2. The test can be described thus: Binding affinity to alpha4beta2 nAChR (unknown origin). The format is protein-complex assay.
For test [8], the species on record is Rattus norvegicus. The test can be described thus: Agonist activity at nAChR in Sprague-Dawley rat striatal slices assessed as induction of [3H]-dopamine release at 25 uM. The note with it: Sprangue-Dawley.
The species named for test [9] is Rattus norvegicus. The test can be described thus: Antagonist activity at nAChR in Sprague-Dawley rat striatal slices assessed as inhibition of nicotine-induced [3H]-dopamine release at 10 uM. The note with it: Sprangue-Dawley.
In test [10] the target is T1, Neuronal acetylcholine receptor; alpha4/beta2. The test can be described thus: Agonist activity at alpha4beta2 nAChR (unknown origin) expressed in HEK293 cells assessed as increase of ERK1/2 phosphorylation at 10 uM after 5 mins by Western blotting. The test is classed as cell-based.
Test [11] addresses D(2) dopamine receptor (Rattus norvegicus, UniProt P61169). The test can be described thus: Displacement of [3H]raclopride from dopamine D2 receptor in Sprague-Dawley rat striatal membranes after 30 mins. Details: species or system Sprangue-Dawley, Striatum, Membrane.
The target in test [12] is Neuronal acetylcholine receptor; alpha4/beta2 (Rattus norvegicus) (UniProt P09483+P12390). The test can be described thus: Ratio of NHNB Ki to compound Ki for immunoimmobilized alpha4beta2 nAChR in Sprague-Dawley rat striatal membranes. The settings on record: Sprangue-Dawley.
Test [13] has as its target Neuronal acetylcholine receptor subunit alpha-6/beta-3 (Rattus norvegicus) (UniProt P12391+P43143). The test can be described thus: Ratio of NHNB Ki to compound Ki for immunoimmobilized alpha6beta2 nAChR in Sprague-Dawley rat striatal membranes. The note with it: Sprangue-Dawley.
For test [14], the target named is D(3) dopamine receptor (Homo sapiens, UniProt P35462). The test can be described thus: Displacement of [3H]raclopride from dopamine D3 receptor (unknown origin) expressed in HEK293 cells after 30 mins. The format is cell-based.
Test [15] has as its target Mitogen-activated protein kinase; ERK1/ERK2 (Homo sapiens) (UniProt P27361+P28482). The test can be described thus: Induction of ERK1/2 phosphorylation in human HEK293 cells at 10 uM after 5 mins by Western blotting. The format is cell-based.
Test [16] concerns the target T1, Neuronal acetylcholine receptor; alpha4/beta2. The test can be described thus: Antagonist activity at alpha4beta2 nAChR (unknown origin) expressed in HEK293 cells assessed as reduction of nicotine-induced ERK1/2 phosphorylation at 10 uM treated 30 mins before nicotine addition by Western blotting. The format is cell-based. A general note: In western blotting, separated proteins are transferred to a membrane and probed.

The target in test [17] is D(2) dopamine receptor (Homo sapiens) (UniProt P14416). The test can be described thus: Partial agonist activity at dopamine D2 receptor (unknown origin) expressed in HEK293 cells assessed as reduction of quinpirole-induced ERK1/2 phosphorylation at 10 uM treated 30 mins before quinpirole addition by Western blotting. The test is classed as cell-based. Details: scale not given: the % may be the effect or the level left.

For test [18], the species on record is Rattus norvegicus. The test can be described thus: Agonist activity at nAChR in Sprague-Dawley rat striatal slices assessed as induction of [3H]-dopamine release at 10 uM. The settings on record: Sprangue-Dawley.
Test [19] is filed under the species Rattus norvegicus. The test can be described thus: Antagonist activity at nAChR in Sprague-Dawley rat striatal slices assessed as inhibition of nicotine-induced [3H]-dopamine release at 5 uM. The settings on record: Sprangue-Dawley.

Chain of Neuronal acetylcholine receptor; alpha4/beta2 (Rattus norvegicus, UniProt P09483+P12390) (P09483 whole entry): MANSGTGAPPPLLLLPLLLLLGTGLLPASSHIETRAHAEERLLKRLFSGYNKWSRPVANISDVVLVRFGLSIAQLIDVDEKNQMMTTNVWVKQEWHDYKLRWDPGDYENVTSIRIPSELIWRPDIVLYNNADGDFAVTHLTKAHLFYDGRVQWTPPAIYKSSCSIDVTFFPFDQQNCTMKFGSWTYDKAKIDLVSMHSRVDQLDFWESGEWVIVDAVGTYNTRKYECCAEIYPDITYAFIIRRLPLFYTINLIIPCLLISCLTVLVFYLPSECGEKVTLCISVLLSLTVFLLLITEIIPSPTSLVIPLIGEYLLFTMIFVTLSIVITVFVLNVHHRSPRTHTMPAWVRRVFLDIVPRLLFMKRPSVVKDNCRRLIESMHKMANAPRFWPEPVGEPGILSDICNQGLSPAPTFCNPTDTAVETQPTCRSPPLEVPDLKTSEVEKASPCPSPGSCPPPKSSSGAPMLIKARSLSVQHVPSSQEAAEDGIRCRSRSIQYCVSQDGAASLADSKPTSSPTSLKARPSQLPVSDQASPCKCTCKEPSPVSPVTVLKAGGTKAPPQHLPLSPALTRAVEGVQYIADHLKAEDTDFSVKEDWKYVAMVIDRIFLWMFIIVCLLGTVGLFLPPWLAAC
Chain of Neuronal acetylcholine receptor; alpha4/beta2 (Rattus norvegicus, UniProt P09483+P12390) (P12390 whole entry): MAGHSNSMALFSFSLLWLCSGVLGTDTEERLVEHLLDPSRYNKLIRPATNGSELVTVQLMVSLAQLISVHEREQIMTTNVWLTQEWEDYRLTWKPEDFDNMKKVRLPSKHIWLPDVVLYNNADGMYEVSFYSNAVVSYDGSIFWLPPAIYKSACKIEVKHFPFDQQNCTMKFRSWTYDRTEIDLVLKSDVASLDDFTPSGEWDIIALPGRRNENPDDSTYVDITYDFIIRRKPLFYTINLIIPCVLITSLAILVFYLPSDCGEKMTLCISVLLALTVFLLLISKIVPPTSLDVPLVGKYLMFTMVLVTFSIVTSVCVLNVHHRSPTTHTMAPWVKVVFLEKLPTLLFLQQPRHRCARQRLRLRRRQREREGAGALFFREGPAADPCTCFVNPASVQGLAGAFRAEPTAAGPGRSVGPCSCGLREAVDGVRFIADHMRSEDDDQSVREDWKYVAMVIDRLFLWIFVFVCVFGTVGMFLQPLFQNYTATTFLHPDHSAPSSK
Chain of D(2) dopamine receptor (P61169 whole entry): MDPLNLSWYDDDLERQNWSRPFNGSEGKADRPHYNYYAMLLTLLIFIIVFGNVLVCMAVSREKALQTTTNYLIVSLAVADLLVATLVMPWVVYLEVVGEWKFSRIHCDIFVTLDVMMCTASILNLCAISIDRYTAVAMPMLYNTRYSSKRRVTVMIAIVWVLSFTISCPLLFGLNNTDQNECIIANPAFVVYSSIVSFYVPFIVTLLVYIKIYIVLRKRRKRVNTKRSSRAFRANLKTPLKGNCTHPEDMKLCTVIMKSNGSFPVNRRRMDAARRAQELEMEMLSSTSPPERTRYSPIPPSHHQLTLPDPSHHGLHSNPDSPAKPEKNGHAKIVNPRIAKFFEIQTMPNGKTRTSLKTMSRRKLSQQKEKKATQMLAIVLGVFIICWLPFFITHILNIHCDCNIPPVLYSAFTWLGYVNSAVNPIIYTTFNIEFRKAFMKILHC
Chain of Mitogen-activated protein kinase; ERK1/ERK2 (Homo sapiens) (P27361 whole entry, looked up): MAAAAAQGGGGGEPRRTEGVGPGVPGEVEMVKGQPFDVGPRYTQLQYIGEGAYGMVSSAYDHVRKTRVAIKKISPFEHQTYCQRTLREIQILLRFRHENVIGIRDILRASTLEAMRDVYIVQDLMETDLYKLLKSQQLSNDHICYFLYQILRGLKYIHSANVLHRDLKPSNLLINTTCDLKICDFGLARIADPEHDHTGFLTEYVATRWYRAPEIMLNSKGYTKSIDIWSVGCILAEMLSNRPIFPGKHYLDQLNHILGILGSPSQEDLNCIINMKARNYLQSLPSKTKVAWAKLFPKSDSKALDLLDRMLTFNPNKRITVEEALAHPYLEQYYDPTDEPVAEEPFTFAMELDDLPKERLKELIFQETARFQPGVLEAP
Chain of Mitogen-activated protein kinase; ERK1/ERK2 (Homo sapiens) (P28482 whole entry, looked up): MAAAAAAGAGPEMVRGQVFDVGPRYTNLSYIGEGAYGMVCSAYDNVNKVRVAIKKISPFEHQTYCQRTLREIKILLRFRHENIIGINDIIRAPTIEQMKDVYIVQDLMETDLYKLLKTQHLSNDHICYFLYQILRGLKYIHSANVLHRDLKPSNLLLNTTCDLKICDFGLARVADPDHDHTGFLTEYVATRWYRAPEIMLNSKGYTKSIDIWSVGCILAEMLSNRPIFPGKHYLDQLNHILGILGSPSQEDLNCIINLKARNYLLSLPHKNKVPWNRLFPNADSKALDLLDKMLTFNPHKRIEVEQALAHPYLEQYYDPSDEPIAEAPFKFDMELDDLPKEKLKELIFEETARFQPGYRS
Chain of D(3) dopamine receptor (P35462 whole entry): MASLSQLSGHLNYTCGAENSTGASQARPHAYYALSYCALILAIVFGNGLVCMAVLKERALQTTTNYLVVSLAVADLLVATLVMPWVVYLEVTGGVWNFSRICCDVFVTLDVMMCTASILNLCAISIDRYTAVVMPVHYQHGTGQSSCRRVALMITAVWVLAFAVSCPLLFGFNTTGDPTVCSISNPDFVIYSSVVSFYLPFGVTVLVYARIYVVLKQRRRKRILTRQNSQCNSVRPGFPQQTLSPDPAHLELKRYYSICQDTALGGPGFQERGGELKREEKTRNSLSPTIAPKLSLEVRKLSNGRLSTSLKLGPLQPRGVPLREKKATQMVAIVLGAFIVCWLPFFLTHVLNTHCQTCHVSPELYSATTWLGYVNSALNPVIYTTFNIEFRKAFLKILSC
T1 sequence (P17787 whole entry): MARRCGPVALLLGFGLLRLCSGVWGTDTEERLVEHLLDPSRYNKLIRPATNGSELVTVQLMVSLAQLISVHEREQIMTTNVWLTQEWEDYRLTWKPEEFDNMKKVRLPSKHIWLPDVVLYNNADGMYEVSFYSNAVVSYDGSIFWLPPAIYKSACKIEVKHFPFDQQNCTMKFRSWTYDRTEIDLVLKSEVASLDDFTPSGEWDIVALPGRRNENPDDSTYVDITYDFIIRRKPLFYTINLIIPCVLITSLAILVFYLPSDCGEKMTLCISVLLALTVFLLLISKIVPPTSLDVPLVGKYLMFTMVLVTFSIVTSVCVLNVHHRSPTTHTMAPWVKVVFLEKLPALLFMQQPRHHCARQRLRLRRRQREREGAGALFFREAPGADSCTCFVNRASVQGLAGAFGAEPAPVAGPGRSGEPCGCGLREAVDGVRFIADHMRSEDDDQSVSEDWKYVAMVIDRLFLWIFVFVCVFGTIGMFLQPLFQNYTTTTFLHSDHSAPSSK
T1 sequence (P43681 whole entry): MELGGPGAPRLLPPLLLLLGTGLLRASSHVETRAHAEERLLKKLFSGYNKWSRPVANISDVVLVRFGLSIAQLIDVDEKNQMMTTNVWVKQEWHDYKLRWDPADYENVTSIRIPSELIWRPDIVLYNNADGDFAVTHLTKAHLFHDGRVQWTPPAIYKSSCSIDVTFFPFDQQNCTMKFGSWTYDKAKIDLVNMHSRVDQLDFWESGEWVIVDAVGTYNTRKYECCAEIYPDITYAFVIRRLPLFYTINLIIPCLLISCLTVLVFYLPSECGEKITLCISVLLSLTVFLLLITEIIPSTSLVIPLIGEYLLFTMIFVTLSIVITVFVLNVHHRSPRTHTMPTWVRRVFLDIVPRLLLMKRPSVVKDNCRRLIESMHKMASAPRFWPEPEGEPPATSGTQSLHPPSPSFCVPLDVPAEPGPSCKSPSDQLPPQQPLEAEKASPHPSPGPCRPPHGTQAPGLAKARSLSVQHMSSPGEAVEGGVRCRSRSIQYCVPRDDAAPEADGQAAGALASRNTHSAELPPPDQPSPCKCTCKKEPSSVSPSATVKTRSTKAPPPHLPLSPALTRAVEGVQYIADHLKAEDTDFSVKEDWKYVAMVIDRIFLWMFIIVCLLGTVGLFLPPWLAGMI
Chain of Neuronal acetylcholine receptor subunit alpha-7 (Q05941 whole entry): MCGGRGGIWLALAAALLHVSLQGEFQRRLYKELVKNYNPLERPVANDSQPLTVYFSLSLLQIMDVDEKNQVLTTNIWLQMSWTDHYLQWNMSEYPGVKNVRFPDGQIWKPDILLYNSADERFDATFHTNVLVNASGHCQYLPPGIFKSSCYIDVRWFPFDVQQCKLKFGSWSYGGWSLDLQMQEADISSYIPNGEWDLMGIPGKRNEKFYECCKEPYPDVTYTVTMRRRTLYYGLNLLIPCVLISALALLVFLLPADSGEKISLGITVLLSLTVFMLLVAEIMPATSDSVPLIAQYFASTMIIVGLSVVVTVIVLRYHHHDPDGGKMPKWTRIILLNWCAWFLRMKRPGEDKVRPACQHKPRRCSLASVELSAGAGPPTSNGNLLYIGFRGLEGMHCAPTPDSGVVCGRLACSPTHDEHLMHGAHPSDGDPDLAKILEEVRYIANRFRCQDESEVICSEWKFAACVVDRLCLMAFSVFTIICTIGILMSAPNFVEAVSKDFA
Chain of D(2) dopamine receptor (Homo sapiens) (P14416 whole entry): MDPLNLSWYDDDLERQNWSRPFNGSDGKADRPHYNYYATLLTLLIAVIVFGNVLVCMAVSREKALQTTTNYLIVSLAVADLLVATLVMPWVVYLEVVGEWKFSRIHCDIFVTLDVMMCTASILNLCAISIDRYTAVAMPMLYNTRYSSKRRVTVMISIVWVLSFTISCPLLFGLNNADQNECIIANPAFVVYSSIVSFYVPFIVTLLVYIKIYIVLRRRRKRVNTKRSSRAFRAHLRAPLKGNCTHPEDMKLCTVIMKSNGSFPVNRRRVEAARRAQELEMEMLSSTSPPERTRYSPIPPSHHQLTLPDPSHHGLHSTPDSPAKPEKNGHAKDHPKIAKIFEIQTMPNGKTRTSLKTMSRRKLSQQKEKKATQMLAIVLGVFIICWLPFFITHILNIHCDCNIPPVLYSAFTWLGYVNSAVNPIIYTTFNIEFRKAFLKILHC

What is called Ki is a measure of affinity in units of concentration, obtained from inhibition or displacement. With `CCCCCCNCC1CCc2ccc(O)cc2O1` (stereo not given), the inhibition constant Ki in [1] and in test [2] was over 100000 nM throughout.

Take `CCCNCC1CCc2ccc(O)cc2O1` (stereo not given): the Ki in test [1] and in test [2] was over 100000 nM each time.

Broadly, the IC50 is the concentration that gives 50% inhibition. In the case of `CO[C@H]1CC=C2CCN3CCC4=C(CC(=O)OC4)[C@]23C1`, in test [3], the IC50 is 2200 nM.

As for `CCCCC[n+]1cccc([C@@H]2CCCN2C)c1`, the Ki in test [1] was 3940 nM; in test [2] it was over 100000 nM. The concentration for half-maximal inhibition (IC50) was 90 nM in test [4] and 15300 nM in test [3]. Also, in [5], the Activity stood at 27%.

On to `CCCCCC[n+]1cccc([C@@H]2CCCN2C)c1`, for which the Ki in [1] was 4710 nM; in [2], over 100000 nM. The half-maximal inhibitory concentration (IC50) is 300 nM in test [4] and 8900 nM in test [3]. In test [5], the Activity was determined as 18%. Also, the outcome in test [6] was inactive.

Consider `CCCCCCCCCCCC[n+]1cccc([C@@H]2CCCN2C)c1`, for which the inhibition constant Ki in test [1] was determined as 1410 nM; in test [2] it was 83000 nM; in [7] it was 0.14 nM. For the same compound, in test [5], the Activity was found to be 9%. Besides, in test [3], the concentration for half-maximal inhibition (IC50) was 500 nM. Moreover, the outcome in test [8] was Active.

A word on the inhibition: it is the change of the read-out against control, counted positive when it falls. `CCCCCCCCCC[n+]1cccc([C@@H]2CCCN2C)c1`: the inhibitory constant (Ki) in [1] came to 8690 nM; in test [2] it was 84000 nM; in test [7], 0.09 nM. The concentration for half-maximal inhibition (IC50) in test [4] was determined as 200 nM. Besides, the Activity in test [5] was 1.3%. In test [6], the result was Active. The inhibition result in [9] is “inactive”.

In the case of `CN1CCC[C@H]1c1cccnc1`, the result in test [10] was Active.

For the compound `CN1CCC[C@H]1c1ccc[n+](CCCCCNCC2CCc3ccc(O)cc3O2)c1` (mixture of isomers), the Ki in test [11] turned out to be 120 nM; in test [1], 2270 nM; in [2], 11000 nM; in [14], 43 nM. The Ratio Ki came to 43 in test [12] and 30 in test [13]. Besides, the results for the IC50 in test [4] and in test [3] were 200 nM and 2300 nM, respectively. Also, in [5], the Activity turned out to be 13%. In addition, the outcome in test [6], in test [15] and in test [10] was inactive. Further, the inhibition in [16] amounted to 55%.

In the case of `CN1CCC[C@H]1c1ccc[n+](CCCCCCNCC2CCc3ccc(O)cc3O2)c1` (mixture of isomers), the Ki in [11] came to 97 nM; in [1] it was 109 nM; in test [2], 13000 nM; in test [14], 15.7 nM. Also, the figures for the half-inhibitory concentration (IC50) in [4] and in test [3] were 800 nM and 6900 nM, respectively. In addition, the Activity was found to be 15% in [5] and 40% in test [17]. The outcome in test [6], in [15] and in test [10] was inactive. Besides, the inhibition in [16] came out at 65%.

In the case of `CN1CCC[C@H]1c1ccc[n+](CCCCCCCCCCNCC2CCc3ccc(O)cc3O2)c1` (mixture of isomers), the inhibition constant Ki in [11] is 14 nM; in [1] it was 1060 nM; in test [2], 43000 nM; in test [14], 3.3 nM. Also, the Ratio Ki came to 43 in test [12] and 30 in [13]. Also, the figures for the IC50 in [4] and in test [3] were 100 nM and 10400 nM, respectively. Moreover, the Activity in [5] is 4%. The outcome in test [15] and in [10] was inactive. In addition, the inhibition in [16] amounted to 57%.

Turning to `CN1CCC[C@H]1c1ccc[n+](CCCCCCCCCCCCNCC2CCc3ccc(O)cc3O2)c1` (mixture of isomers), the Ki in test [11] was 20 nM; in [1], 2750 nM; in [2], 65000 nM; in test [14] it was 9.9 nM. For the same compound, the Ratio Ki stood at 43 in [12] and 30 in [13]. The Activity in test [5] was 8.3%. In test [18], the outcome was Active. In addition, the inhibition in [19] is 10%; in test [16] it was 57%. The outcome in [15] and in test [10] was inactive.

On to `CNC1(C)C2CCC(C2)C1(C)C` (stereo not given) [MECAMYLAMINE], for which the half-maximal inhibitory concentration (IC50) in [3] is 300 nM.
